Assay [1] addresses 5-hydroxytryptamine receptor 2A (Homo sapiens, UniProt P28223). Briefly: GPCRScan assay: inhibition of 5-HT2A. Set-up: radioligand conc. used [nm] 1.2 – 2.4, parental cells HEKT.
For another assay, the target named is Estrogen receptor (Homo sapiens, UniProt P03372). The experiment in a line: Inhibition of Estrogen ERalpha at compound concentration of 10.0 uM in the Eurofins-Panlabs radioligand binding assay (Eurofins_assay_226010). Set-up: ligand concentration 0.5 nM, non-specific ligand with concentration 1 uM Diethylstilbestrol, incubation time 2 h, incubation temperature 25 C.

The target in the next assay is Progesterone receptor (Homo sapiens, UniProt P06401). The experiment in a line: Inhibition of Progesterone PR-B at compound concentration of 10.0 uM in the Eurofins-Panlabs radioligand binding assay (Eurofins_assay_299005). Details: ligand concentration 0.5 nM, non-specific ligand with concentration 1 uM R5020, incubation time 20 h, incubation temperature 4 C.
The target in assay [2] is Transient receptor potential cation channel subfamily A member 1 (Mus musculus, UniProt Q8BLA8). Briefly: FLIPR Ca2+ assay (mouse TRPA1).
Assay [3] in a line: FLIPR Ca2+ assay (dog TRPA1). Details: species or system Canis lupus familiaris.
Assay [4] can be described thus: FLIPR Ca2+ assay (monkey TRPA1).
Assay [5] addresses Sodium-dependent noradrenaline transporter (Homo sapiens) (UniProt P23975). Particulars: Compound concentration 10.0 uM.
The target in assay [6] is Histamine H4 receptor (Homo sapiens) (UniProt Q9H3N8). The note with it: Compound concentration 10.0 uM.
In assay [7] the target is Sigma non-opioid intracellular receptor 1 (Homo sapiens) (UniProt Q99720). The note with it: Compound concentration 10.0 uM.
Assay [8] concerns the target Adenosine receptor A1 (Homo sapiens) (UniProt P30542). Particulars: Compound concentration 10.0 uM.
Assay [9] has as its target T1, Alpha-1A adrenergic receptor (Homo sapiens) (UniProt P35348).
T1 sequence (whole entry): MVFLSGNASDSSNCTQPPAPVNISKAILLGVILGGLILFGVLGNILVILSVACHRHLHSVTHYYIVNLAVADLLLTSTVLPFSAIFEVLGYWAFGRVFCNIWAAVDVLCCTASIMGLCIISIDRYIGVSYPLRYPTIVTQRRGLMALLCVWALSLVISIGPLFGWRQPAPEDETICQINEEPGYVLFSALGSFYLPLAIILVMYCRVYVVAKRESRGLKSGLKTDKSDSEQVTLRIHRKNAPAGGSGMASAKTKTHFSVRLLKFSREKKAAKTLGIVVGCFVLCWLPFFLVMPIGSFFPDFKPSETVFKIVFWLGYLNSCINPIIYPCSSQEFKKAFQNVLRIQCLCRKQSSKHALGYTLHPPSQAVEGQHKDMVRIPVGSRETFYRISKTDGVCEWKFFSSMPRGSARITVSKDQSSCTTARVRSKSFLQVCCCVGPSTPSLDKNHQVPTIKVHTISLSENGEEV
The note with it: Rattus norvegicus; Compound concentration 10.0 uM.

Assay [10] concerns the target B2 bradykinin receptor (Homo sapiens) (UniProt P30411). Particulars: Compound concentration 10.0 uM.
Assay [11] addresses Endothelin receptor type B (Homo sapiens) (UniProt P24530). The note with it: Compound concentration 10.0 uM.
Assay [12] has as its target Estrogen receptor (Homo sapiens) (UniProt P03372). The note with it: Compound concentration 10.0 uM.
Assay [13] concerns the target Glutamate NMDA receptor (Rattus norvegicus) (UniProt P35439+Q00959+Q00960+Q00961+Q62645+Q8VHN2+Q9R1M7). Particulars: Compound concentration 10.0 uM.
The target in assay [14] is T2, Muscarinic acetylcholine receptor M2 (Homo sapiens) (UniProt P08172).
T2 sequence (whole entry): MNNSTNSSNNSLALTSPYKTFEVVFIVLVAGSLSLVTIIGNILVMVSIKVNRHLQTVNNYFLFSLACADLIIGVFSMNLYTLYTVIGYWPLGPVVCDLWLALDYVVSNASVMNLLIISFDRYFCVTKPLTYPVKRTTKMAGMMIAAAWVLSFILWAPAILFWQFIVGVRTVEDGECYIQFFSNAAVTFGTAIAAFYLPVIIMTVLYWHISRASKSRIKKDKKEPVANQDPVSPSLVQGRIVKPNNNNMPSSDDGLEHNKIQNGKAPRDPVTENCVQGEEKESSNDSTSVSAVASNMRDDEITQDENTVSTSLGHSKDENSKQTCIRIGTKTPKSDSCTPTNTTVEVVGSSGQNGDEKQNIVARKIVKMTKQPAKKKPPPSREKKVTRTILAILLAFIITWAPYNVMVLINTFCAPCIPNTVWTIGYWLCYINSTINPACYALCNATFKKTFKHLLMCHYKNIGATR
Particulars: Compound concentration 10.0 uM.

Assay [15] deals with Glucocorticoid receptor (Homo sapiens) (UniProt P04150). The note with it: Compound concentration 10.0 uM.
Assay [16] concerns the target GABA-A receptor; anion channel (Rattus norvegicus) (UniProt O09028+P15431+P18506+P18508+P19969+P20236+P23574+P23576+P28471+P28473+P30191+P62813+P63079+P63138+Q91ZM7+Q9ES14). Particulars: Compound concentration 10.0 uM.
Assay [17] concerns the target T3, 5-hydroxytryptamine receptor 2C (Homo sapiens) (UniProt P28335).
T3 sequence (whole entry): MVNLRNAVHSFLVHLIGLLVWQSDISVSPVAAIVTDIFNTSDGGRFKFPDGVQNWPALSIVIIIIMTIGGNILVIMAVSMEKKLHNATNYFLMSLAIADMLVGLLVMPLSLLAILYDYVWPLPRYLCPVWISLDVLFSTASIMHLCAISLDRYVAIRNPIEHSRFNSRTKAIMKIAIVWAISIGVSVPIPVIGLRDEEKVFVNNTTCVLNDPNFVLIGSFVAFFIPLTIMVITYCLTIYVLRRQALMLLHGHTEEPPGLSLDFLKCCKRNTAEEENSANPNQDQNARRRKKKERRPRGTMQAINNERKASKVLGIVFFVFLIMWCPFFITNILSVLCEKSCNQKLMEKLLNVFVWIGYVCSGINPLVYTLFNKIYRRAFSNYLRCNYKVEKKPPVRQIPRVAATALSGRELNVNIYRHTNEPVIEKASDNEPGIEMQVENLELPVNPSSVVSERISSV
Particulars: Compound concentration 10.0 uM.

Assay [18] deals with Vasopressin V1a receptor (Homo sapiens) (UniProt P37288). Particulars: Compound concentration 10.0 uM.
In assay [19] the target is Gamma-aminobutyric acid type B receptor subunit 1 (Homo sapiens) (UniProt Q9UBS5). Particulars: Rattus norvegicus; Compound concentration 10.0 uM.
The target of assay [20] is 5-hydroxytryptamine receptor 1D (Homo sapiens) (UniProt P28221). Particulars: Compound concentration 10.0 uM.
Assay [21] has as its target 5-hydroxytryptamine receptor 1E (Homo sapiens) (UniProt P28566). The note with it: Compound concentration 10.0 uM.
Assay [22] deals with Histamine H3 receptor (Homo sapiens) (UniProt Q9Y5N1). Particulars: Compound concentration 10.0 uM.
Assay [23] deals with Alpha-2B adrenergic receptor (Homo sapiens) (UniProt P18089). Particulars: Compound concentration 10.0 uM.

SMILES strings stand for the structures. Activity calls are given as the source filed them. The calls are words filed in the database; no cut-off is given here.

Sequence of Estrogen receptor (P03372 whole entry): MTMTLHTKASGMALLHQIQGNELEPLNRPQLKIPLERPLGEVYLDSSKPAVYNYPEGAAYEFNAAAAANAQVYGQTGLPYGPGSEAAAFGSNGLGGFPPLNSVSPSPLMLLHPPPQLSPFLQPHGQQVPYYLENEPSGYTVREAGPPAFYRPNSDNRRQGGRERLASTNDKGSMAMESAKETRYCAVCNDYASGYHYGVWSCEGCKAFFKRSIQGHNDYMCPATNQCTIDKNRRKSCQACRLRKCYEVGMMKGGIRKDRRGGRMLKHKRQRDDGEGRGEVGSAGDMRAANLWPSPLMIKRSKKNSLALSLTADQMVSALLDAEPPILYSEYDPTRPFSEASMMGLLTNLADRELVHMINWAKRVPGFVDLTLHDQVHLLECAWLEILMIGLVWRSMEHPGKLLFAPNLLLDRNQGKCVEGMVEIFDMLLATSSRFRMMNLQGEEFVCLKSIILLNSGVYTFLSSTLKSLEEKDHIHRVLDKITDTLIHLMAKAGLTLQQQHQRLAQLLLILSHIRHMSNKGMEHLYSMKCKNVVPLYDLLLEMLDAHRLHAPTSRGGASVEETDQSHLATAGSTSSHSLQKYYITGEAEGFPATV
Sequence of Progesterone receptor (P06401 whole entry): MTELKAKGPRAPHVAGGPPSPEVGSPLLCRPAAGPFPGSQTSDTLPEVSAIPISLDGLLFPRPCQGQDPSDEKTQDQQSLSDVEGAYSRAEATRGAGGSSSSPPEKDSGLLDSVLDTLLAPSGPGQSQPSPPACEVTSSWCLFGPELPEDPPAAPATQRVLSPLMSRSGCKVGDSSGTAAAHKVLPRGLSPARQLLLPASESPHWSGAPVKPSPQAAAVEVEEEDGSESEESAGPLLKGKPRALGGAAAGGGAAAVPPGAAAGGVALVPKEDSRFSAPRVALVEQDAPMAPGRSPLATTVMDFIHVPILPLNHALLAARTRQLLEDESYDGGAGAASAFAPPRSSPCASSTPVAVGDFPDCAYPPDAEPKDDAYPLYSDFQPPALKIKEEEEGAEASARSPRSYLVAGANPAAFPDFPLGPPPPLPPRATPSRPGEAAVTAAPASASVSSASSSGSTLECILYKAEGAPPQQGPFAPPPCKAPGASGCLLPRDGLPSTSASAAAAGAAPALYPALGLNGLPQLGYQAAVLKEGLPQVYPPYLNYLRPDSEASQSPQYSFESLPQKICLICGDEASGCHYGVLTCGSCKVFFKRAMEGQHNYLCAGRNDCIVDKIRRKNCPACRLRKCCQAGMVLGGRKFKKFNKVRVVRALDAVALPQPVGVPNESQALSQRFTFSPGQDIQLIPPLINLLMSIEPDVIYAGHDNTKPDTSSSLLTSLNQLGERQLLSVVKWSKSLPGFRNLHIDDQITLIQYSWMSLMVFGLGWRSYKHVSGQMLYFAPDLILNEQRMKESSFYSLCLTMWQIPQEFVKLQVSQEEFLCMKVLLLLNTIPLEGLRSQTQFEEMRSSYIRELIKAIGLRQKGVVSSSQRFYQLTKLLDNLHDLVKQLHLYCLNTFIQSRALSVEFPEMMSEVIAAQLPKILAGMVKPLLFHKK
Sequence of Gamma-aminobutyric acid type B receptor subunit 1 (Homo sapiens) (Q9UBS5 whole entry): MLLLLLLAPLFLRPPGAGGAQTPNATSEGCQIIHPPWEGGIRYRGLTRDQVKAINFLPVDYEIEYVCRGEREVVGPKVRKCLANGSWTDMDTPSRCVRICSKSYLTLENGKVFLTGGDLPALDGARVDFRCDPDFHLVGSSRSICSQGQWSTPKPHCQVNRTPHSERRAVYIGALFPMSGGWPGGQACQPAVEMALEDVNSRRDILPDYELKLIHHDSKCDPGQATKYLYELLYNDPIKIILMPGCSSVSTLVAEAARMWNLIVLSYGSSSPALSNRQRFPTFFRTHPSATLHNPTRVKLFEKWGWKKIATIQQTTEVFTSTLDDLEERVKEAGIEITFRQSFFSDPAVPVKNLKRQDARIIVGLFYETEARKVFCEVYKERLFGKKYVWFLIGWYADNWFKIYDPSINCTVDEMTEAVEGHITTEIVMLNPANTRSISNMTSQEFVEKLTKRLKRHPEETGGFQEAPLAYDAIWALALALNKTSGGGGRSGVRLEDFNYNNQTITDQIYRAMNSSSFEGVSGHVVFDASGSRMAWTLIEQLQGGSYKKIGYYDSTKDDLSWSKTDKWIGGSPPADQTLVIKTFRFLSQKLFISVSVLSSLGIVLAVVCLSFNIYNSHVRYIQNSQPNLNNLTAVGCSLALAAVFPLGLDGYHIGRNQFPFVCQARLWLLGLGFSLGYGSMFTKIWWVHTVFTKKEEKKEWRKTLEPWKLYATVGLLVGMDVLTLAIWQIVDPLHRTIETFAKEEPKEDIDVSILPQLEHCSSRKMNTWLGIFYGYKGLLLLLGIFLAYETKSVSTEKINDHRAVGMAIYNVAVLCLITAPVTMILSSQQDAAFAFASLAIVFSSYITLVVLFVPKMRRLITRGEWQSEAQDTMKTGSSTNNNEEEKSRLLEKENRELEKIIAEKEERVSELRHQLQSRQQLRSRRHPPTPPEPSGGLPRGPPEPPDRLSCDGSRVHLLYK
Sequence of Sigma non-opioid intracellular receptor 1 (Homo sapiens) (Q99720 whole entry): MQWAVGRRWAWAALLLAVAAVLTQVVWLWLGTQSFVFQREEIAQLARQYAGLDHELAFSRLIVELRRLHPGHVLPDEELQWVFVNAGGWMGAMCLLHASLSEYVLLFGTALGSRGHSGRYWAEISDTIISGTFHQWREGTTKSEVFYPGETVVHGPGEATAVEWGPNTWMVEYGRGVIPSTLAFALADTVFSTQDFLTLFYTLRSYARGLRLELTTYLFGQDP
Sequence of Glucocorticoid receptor (Homo sapiens) (P04150 whole entry): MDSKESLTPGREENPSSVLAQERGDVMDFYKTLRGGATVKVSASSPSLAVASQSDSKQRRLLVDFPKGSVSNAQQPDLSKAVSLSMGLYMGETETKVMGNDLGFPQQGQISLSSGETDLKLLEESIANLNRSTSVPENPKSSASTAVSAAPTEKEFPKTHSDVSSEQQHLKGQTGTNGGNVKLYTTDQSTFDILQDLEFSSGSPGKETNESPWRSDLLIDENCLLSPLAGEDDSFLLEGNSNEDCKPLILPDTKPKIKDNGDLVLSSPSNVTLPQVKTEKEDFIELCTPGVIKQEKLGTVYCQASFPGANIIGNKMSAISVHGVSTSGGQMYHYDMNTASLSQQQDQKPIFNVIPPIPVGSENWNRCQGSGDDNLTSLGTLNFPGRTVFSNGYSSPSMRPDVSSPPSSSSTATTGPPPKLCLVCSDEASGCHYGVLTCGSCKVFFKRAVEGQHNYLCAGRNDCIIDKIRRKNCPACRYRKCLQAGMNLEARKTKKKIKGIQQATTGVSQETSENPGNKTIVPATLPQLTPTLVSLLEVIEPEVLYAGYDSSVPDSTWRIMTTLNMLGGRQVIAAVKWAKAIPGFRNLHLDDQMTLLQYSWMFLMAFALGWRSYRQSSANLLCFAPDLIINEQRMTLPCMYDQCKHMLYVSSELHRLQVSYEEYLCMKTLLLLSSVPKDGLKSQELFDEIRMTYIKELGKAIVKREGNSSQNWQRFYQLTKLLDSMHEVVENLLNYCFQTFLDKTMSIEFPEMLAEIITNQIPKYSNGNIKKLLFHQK
Sequence of Estrogen receptor (Homo sapiens) (P03372 whole entry): as the sequence (P03372 whole entry) above
Sequence of Endothelin receptor type B (Homo sapiens) (P24530 whole entry): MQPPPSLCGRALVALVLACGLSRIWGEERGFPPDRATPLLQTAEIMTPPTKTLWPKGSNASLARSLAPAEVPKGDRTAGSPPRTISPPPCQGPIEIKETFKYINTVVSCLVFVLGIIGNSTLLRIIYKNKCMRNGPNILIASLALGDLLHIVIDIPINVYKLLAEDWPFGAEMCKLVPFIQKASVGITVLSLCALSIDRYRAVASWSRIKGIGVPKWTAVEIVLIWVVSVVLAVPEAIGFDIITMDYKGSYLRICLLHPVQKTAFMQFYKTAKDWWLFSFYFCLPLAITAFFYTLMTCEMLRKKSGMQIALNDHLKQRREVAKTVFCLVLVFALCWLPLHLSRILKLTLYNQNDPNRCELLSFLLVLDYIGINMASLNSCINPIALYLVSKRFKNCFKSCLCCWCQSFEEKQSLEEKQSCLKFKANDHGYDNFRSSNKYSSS
Sequence of 5-hydroxytryptamine receptor 1E (Homo sapiens) (P28566 whole entry): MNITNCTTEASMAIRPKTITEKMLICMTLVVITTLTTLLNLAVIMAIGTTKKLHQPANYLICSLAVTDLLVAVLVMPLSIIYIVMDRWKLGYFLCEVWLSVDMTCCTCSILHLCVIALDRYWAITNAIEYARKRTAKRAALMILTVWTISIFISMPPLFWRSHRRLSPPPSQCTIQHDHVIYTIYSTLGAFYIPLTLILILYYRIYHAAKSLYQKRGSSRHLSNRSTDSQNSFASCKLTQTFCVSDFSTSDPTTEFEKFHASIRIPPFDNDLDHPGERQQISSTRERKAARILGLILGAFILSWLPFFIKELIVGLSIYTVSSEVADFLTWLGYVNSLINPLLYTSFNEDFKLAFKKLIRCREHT
Sequence of Sodium-dependent noradrenaline transporter (Homo sapiens) (P23975 whole entry): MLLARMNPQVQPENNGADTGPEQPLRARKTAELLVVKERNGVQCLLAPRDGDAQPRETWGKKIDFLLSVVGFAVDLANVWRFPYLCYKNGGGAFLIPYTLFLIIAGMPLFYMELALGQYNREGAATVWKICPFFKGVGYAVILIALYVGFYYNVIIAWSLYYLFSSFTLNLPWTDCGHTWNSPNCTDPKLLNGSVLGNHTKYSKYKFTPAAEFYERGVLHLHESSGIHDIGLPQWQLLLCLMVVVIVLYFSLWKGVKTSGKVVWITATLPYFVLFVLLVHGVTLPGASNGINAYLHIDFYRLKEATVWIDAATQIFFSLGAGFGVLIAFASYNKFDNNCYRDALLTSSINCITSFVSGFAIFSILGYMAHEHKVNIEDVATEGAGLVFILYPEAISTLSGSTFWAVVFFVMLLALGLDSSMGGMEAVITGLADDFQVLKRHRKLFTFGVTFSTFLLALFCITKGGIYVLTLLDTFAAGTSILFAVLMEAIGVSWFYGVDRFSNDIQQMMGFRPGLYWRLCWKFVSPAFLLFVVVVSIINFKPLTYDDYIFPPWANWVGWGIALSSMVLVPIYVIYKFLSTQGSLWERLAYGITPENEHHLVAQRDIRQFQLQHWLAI

The term Ki denotes a dissociation constant, usually derived from enzyme kinetics or from competition with a known ligand. The IC50 is the point on the concentration scale where inhibition reaches its midpoint. As usually defined, the inhibition is the change of the read-out against control, counted positive when it falls. Consider `O[C@]1(C(F)(F)F)CCCC[C@H]1Nc1ccc(F)cc1` [BAY-390], for which the inhibitory constant (Ki) in assay [1] worked out at 2580 nM; at Estrogen receptor, 720 nM; on Progesterone receptor, 4000 nM. Moreover, the IC50 was 2500 nM on Estrogen receptor; 5000 nM on Progesterone receptor; 73 nM (active) in [2]; 81 nM (active) in assay [3]; 19 nM (active) in [4]. The inhibition in [5] is 0.78%; in assay [6], 15.6%; in [7], 36.2%; in assay [8] it was 18%; in assay [9] it was 18%; in assay [10] it was 4%. Further, the inhibition in [11] was -4%; in [12], 75%; in assay [13], 9%; in assay [14] it was -2%; in assay [15], 4%; in assay [16] it was -8%. Moreover, the inhibition is 3% in [17], -7% in assay [18] and 3% in assay [19].
Take `COc1cc(N[C@@H]2CCCC[C@]2(O)C(F)(F)F)ccc1F` [BAY-9897]: the inhibition in assay [20] is 2.77%; in assay [21], -4.13%; in [22], -2.34%; in assay [23], -0.18%.

Source of the values: ChEMBL document CHEMBL4507328, “Data for DCP probe BAY-390” (2021).
